Results published in patent US20250152585A1, “PHARMACEUTICAL COMPOUND” (Duke Street Bio Limited, priority 2022, published 2025).
Read-outs that look alike come from different tables or passages of the source.

Experiments:
[1] = target: T1, full length N-terminally FLAG-tagged PARP1 (Homo sapiens, UniProt P09874); assay: PARP1 probe displacement HTRF assay; conditions: for Selectivity: PARP1 over PARP2, ratio Kd (PARP2)/Kd (PARP1); for Kd: binned Kd
[2] = target: T2, N-terminally FLAG-tagged PARP2 (amino acids 1-583) (Homo sapiens, UniProt Q9UGN5); assay: PARP2 probe displacement HTRF assay; type: binding; conditions: binned Kd
T2 construct: N-terminally FLAG-tagged PARP2 (amino acids 1-583)
T2 sequence (Q9UGN5 whole entry, the tested form may be a part): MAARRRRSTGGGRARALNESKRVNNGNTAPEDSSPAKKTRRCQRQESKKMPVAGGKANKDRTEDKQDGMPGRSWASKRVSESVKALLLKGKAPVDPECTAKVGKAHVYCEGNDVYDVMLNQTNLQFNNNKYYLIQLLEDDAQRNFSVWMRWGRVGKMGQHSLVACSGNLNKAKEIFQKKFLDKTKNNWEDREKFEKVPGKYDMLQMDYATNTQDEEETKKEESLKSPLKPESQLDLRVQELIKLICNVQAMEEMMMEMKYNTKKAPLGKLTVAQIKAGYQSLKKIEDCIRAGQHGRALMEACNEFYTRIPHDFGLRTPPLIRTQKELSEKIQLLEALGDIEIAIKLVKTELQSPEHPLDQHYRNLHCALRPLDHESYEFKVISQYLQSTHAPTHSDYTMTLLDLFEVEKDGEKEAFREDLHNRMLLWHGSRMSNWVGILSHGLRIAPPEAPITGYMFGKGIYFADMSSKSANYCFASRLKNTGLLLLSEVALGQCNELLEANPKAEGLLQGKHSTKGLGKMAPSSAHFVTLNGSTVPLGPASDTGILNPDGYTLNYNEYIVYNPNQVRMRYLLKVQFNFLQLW
Procedure: Data analysis was performed identical as for PARP1.

[3] = target: T1, full length N-terminally FLAG-tagged PARP1; assay: PARP1 biochemical DELFIA assay (auto-PARylation); parameters: recombinant full length human N-terminally FLAG-tagged PARP1
[4] = read-out: PARP1 HTRF, PARP1 probe displacement HTRF
[5] = binned IC50, PARP1 biochemical DELFIA assay
[6] = read-out: PARP1 HTRF, probe displacement HTRF
[7] = binned IC50, biochemical auto-PARylation assay
[8] = PARP1 HTRF, PARP1 probe displacement HTRF
[9] = PARP1 HTRF, probe displacement HTRF

T1 sequence (P09874 whole entry, the tested form may be a part): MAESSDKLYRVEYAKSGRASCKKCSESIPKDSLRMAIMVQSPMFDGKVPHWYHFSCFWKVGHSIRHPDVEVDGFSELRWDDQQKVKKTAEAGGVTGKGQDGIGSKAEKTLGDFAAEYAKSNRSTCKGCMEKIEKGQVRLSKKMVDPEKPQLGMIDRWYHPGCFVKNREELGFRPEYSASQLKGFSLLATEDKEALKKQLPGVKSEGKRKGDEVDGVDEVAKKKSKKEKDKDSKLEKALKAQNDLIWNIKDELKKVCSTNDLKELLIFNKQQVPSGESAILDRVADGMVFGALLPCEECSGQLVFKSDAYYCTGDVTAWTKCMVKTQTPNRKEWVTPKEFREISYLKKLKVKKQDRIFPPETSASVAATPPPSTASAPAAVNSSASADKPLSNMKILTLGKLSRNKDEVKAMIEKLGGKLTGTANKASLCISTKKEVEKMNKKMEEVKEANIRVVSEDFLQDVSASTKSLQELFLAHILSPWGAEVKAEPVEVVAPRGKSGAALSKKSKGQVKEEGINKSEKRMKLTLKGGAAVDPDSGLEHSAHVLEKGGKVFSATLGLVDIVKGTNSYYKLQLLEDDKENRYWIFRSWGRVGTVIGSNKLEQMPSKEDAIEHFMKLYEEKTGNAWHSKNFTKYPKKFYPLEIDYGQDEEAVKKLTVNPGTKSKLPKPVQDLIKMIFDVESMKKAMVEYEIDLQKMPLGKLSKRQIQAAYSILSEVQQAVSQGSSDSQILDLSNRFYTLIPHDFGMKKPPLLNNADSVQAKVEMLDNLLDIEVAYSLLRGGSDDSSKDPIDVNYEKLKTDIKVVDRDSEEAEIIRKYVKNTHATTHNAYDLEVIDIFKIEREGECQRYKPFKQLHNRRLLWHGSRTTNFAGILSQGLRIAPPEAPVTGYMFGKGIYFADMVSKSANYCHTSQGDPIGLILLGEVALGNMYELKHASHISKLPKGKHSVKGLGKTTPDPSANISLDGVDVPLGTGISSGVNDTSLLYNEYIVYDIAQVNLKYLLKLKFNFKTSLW

Kd [1, 4] [nM] | Kd ([2]; PARP2 probe displacement HTRF) [nM] | IC50 [3, 5] [nM] | Kd [1, 6] [nM] | Kd ([2]; probe displacement HTRF) [nM] | IC50 [3, 7] [nM] | Kd [1, 8] [nM] | Kd [1, 9] [nM] | Structure (SMILES) | Selectivity ([1]; probe displacement HTRF)
10 to 100 | > 10000 | 10 to 100 |  |  |  |  |  | CNC(=O)c1ccc(N2CCC(N3CCCC(c4ncc(C(F)(F)F)c(=O)[nH]4)C3)CC2)cn1 (single isomer, unassigned) [Compound 73b] | ++ (++ indicates a value of 50 to less than 100)
10 to 100 | 100 to 1000 | 10 to 100 |  |  |  |  |  | N#Cc1ccc(N2CCC(N3CCC(c4nc5ccccc5c(=O)[nH]4)C3)CC2)cc1 (single isomer, unassigned) [Compound 34a] | − (− indicates a value of less than 10)
100 to 1000 | 100 to 1000 | 100 to 1000 |  |  |  |  |  | CNC(=O)c1cnc(N2CCC(N3CCC(c4nc5ccccc5c(=O)[nH]4)C3)CC2)cn1 (single isomer, unassigned) [Compound 96b] | − (− indicates a value of less than 10)
 |  |  | < 10 | 100 to 1000 | < 10 |  |  | CNC(=O)c1ccc(N2CCC(N3CCC(c4nc5ccc(F)c(F)c5c(=O)[nH]4)C3)CC2)cn1 (single isomer, unassigned) [Compound 222a] | + (+ indicates a value of 10 to less than 50)
< 10 | > 10000 | < 10 |  |  |  |  |  | CNC(=O)c1ccc(N2CCC(N3CCCC(c4nc5ccccc5c(=O)[nH]4)C3)CC2)c(C)n1 (single isomer, unassigned) [Compound 131b] | +++ (+++ indicate a value of at least 100)
< 10 | 1000 to 10000 | < 10 |  |  |  |  |  | CCc1ccc(C2CCN(C3CCN(c4ccc(C(N)=O)nc4)CC3)C2)[nH]c1=O (racemic) [Compound 166rac] | +++ (+++ indicate a value of at least 100)
 |  |  | 10 to 100 | > 10000 | 10 to 100 |  |  | CNC(=O)c1ccc(N2CCC(N3CCC(F)(c4nc5ccccc5c(=O)[nH]4)C3)CC2)cn1 (single isomer, unassigned) [Compound 328b] | +++ (+++ indicate a value of at least 100)
 | 100 to 1000 | < 10 |  |  |  | < 10 |  | CNC(=O)c1ccc(N2CCC(CN3CCC(c4nc5c(Cl)cccc5c(=O)[nH]4)CC3)CC2)cn1 [Compound 40, 5-(4-((4-(8-chloro-4-oxo-3,4-dihydroquinazolin-2-yl)piperidin-1-yl)methyl)piperidin-1-yl)-N-methylpicolinamide] | ++ (++ indicates a value of 50 to less than 100)
< 10 | 1000 to 10000 | < 10 |  |  |  |  |  | CNC(=O)c1ccc(N2CCC(N3CCC(c4nc5ccccc5c(=O)[nH]4)C3)CC2)c(C)n1 (single isomer, unassigned) [Compound 125a] | +++ (+++ indicate a value of at least 100)
 |  |  | < 10 | 1000 to 10000 | < 10 |  |  | CNC(=O)c1ncc(N2CCC(N3CCC(c4cc5cccc(F)c5c(=O)[nH]4)C3)CC2)c(C(F)(F)F)n1 (single isomer, unassigned) [Compound 277a] | +++ (+++ indicate a value of at least 100)
10 to 100 | 100 to 1000 | 10 to 100 |  |  |  |  |  | CCNC(=O)c1ccc(N2CCC(N3CCC(c4nc5ccccc5c(=O)[nH]4)C3)CC2)cn1 (single isomer, unassigned) [Compound 111a] | + (+ indicates a value of 10 to less than 50)
100 to 1000 | 100 to 1000 | 10 to 100 |  |  |  |  |  | CNC(=O)c1cnc(N2CCC(N3CCCC(c4nc5ccccc5c(=O)[nH]4)C3)CC2)cn1 (single isomer, unassigned) [Compound 99b] | − (− indicates a value of less than 10)
 |  |  | > 10000 | > 10000 | > 10000 |  |  | CNC(=O)c1ccc(N2CCC(N3CCC(c4nc5c(c(=O)[nH]4)COC5)C3)CC2)cn1 (single isomer, unassigned) [Compound 272a] | − (− indicates a value of less than 10)
 |  |  | 100 to 1000 | 100 to 1000 | 100 to 1000 |  |  | CS(=O)(=O)NC(=O)c1ccc(N2CCC(N3CCC(c4cc5ccccc5c(=O)[nH]4)C3)CC2)cc1 (single isomer, unassigned) [Compound 342a] | − (− indicates a value of less than 10)
 |  |  |  | > 10000 | < 10 |  | < 10 | CNC(=O)c1ccc(N2CCC(N3CCC(c4cc5c(c(=O)[nH]4)CCC(=O)N5)C3)CC2)cn1 (single isomer, unassigned) [Compound 309a, 5-(4-(3-(2,5-dioxo-1,2,3,4,5,6-hexahydro-1,6-naphthyridin-7-yl)pyrrolidin-1-yl)piperidin-1-yl)-N-methylpicolinamide] | +++ (+++ indicate a value of at least 100)
 |  |  |  | 1000 to 10000 | < 10 |  | < 10 | CNC(=O)c1ccc(N2CCC(N3CC4(c5nc6ncc(F)cc6c(=O)[nH]5)CC3C4)CC2)c(F)n1 [Compound 369] | +++ (+++ indicate a value of at least 100)

Kd [1, 4] [nM] | Kd ([2]; PARP2 probe displacement HTRF) [nM] | IC50 [3, 5] [nM] | Kd [1, 6] [nM] | Kd ([2]; probe displacement HTRF) [nM] | IC50 [3, 7] [nM] | Kd [1, 8] [nM] | Kd [1, 9] [nM] | Structure (SMILES) | Selectivity ([1]; probe displacement HTRF)
10 to 100 | > 10000 | 10 to 100 |  |  |  |  |  | CNC(=O)c1ccc(N2CCC(N3CCCC(c4nc5ccccc5c(=O)[nH]4)C3)CC2)c(C(F)F)n1 (racemic) [Compound 156rac] | ++ (++ indicates a value of 50 to less than 100)
 |  |  | < 10 | 1000 to 10000 | < 10 |  |  | CNS(=O)(=O)c1ccc(N2CCC(N3CCC(c4cc5ccccc5c(=O)[nH]4)C3)CC2)cc1 (single isomer, unassigned) [Compound 346a] | +++ (+++ indicate a value of at least 100)
 |  |  | 100 to 1000 | 100 to 1000 | 100 to 1000 |  |  | Cc1cnc(-c2ccc(N3CCC(N4CCC(c5nc6ccccc6c(=O)[nH]5)C4)CC3)cn2)n1C (racemic) [Compound 321rac] | − (− indicates a value of less than 10)
< 10 | > 10000 | < 10 |  |  |  |  |  | CCc1nc(C(=O)NC)ccc1N1CCC(N2CCC(c3nc4ccccc4c(=O)[nH]3)C2)CC1 (single isomer, unassigned) [Compound 118a] | +++ (+++ indicate a value of at least 100)
< 10 | 1000 to 10000 | < 10 |  |  |  |  |  | CCc1ccc(C2CCN(C3CCN(c4ccc(C(=O)NC)nc4C)CC3)C2)[nH]c1=O (single isomer, unassigned) [Compound 133a] | +++ (+++ indicate a value of at least 100)
100 to 1000 | 1000 to 10000 | 100 to 1000 |  |  |  |  |  | CNC(=O)c1ccc(N2CCC(N3CCCC(c4nc5c(c(C(F)(F)F)nn5C)c(=O)[nH]4)C3)CC2)cn1 (single isomer, unassigned) [Compound 190a] | + (+ indicates a value of 10 to less than 50)
< 10 | 1000 to 10000 | < 10 |  |  |  |  |  | CNC(=O)c1ccc(N2CCC(N3CCCC(c4nc5ccccc5c(=O)[nH]4)C3)CC2)c(F)n1 (racemic) [Compound 103rac] | +++ (+++ indicate a value of at least 100)
 |  |  | 100 to 1000 | 1000 to 10000 | 10 to 100 |  |  | CS(=O)(=O)Nc1ccc(N2CCC(N3CCC(c4nc5ccccc5c(=O)[nH]4)C3)CC2)cn1 (single isomer, unassigned) [Compound 291a] | + (+ indicates a value of 10 to less than 50)
< 10 | 100 to 1000 | < 10 |  |  |  |  |  | CNC(=O)c1ccc(N2CCC(N3CCC(c4nc5cccc(F)c5c(=O)[nH]4)C3)CC2)cn1 (single isomer, unassigned) [Compound 101b] | +++ (+++ indicate a value of at least 100)
< 10 | 100 to 1000 | < 10 |  |  |  |  |  | CCc1ccc(C2CCN(C3CCN(c4ccc(C(=O)NCC(F)(F)F)nc4)CC3)C2)[nH]c1=O (racemic) [Compound 153rac] | ++ (++ indicates a value of 50 to less than 100)
 | 100 to 1000 | < 10 |  |  |  | < 10 |  | CNC(=O)c1ccc(N2CCC(N3CCC(c4nc5c(Cl)cccc5c(=O)[nH]4)C3)CC2)cn1 (single isomer, unassigned) [Compound 52b, 5-(4-(3-(8-chloro-4-oxo-3,4-dihydroquinazolin-2-yl)pyrrolidin-1-yl)piperidin-1-yl)-N-methylpicolinamide] | +++ (+++ indicate a value of at least 100)
 |  |  | < 10 | 1000 to 10000 | < 10 |  |  | CCc1ccc(C2CCN(C3CCN(c4cnc(C(=O)NC)cc4F)CC3)C2)[nH]c1=O (racemic) [Compound 257rac] | +++ (+++ indicate a value of at least 100)
< 10 | 100 to 1000 | 10 to 100 |  |  |  |  |  | CNC(=O)c1ccc(N2CCC(N3CCC(c4nc5ccc(Cl)cc5c(=O)[nH]4)C3)CC2)cn1 (single isomer, unassigned) [Compound 68b] | + (+ indicates a value of 10 to less than 50)
100 to 1000 | 1000 to 10000 | 100 to 1000 |  |  |  |  |  | CNC(=O)c1ccc(N2CCC(N3CCCC(c4nc5c(F)cccc5c(=O)[nH]4)C3)CC2)cn1 (single isomer, unassigned) [Compound 114b] | + (+ indicates a value of 10 to less than 50)
 |  |  | 100 to 1000 | 1000 to 10000 | 100 to 1000 |  |  | CNC(=O)c1csc(N2CCC(N3CCC(c4cc5ccccc5c(=O)[nH]4)C3)CC2)n1 (single isomer, unassigned) [Compound 274a] | − (− indicates a value of less than 10)
